Laboratory results published in paper PMC9499506, “TNF-α and IL-1β Modulate Blood-Brain Barrier Permeability and Decrease Amyloid-β Peptide Efflux in a Human Blood-Brain Barrier Model” (International Journal of Molecular Sciences, 2022).

Legend:
Type in all cases: cell-based, human
BLECs [1] = experiment: RT-qPCR of junctional protein mRNA in BLECs; conditions: normalized to cyclophilin A, 10 ng·mL^−1, 24 h; for VE-cadherin mRNA level versus control: ΔΔCt
Description: (§1) Each condition was studied in triplicate.
BLECs were washed twice with cold RH buffer, then lysed using RLT lysis buffer (Qiagen, Les Ulis, France). The cell lysates were extracted according to the manufacturer’s instructions “Qiagen RNeasy Mini kit”. Briefly, a volume of cell lysates was mixed with a volume of 70% (v/v) ethanol and placed in a column (Rneasy Mini kit, Qiagen, Les Ulis, France). A first centrifugation was performed to adsorb the RNAs to the column. A series of two rinses with buffer RW1 and a centrifugation (10.000 rpm, 30 s) were performed. Samples were treated with DNase in its RDD buffer for 20 min. Then, another succession of rinses (one with buffer RW1 and two with buffer RPE) and centrifugation (10.000 rpm, 30 s) were performed. Finally, water (RNAse Free) was added to the column to elute the RNAs by centrifugation (13.000 rpm, 2 min at 20 °C). The amount of extracted mRNAs was assayed by spectrophotometry (Synergy H1, Biotek, Colmar, France). Absorbances at 280 nm (proteins) and 260 nm (nucleic acids) were performed. The mRNA concentration was determined from the Beer-Lambert law and the mRNA purity of the sample was assessed with the Absorbance 260 nm/Absorbance 280 nm ratio. This ratio must be close to 2.1 to consider the sample to be with high purity. The mRNA samples were then stored at −80 °C.
Reverse transcription (RT) was performed on the samples containing the extracted mRNAs to obtain cDNAs. A total of 250 ng of mRNA was reverse-transcribed using iScriptTM reverse Transcription Supermix 5X (Biorad, Munich, Germany), containing reverse transcriptase, RNAse inhibitors, RNAse H, dNTPs (nucleoside triphosphates), oligonucleotides (dTs) (deoxy-thymine repeats) and random primers (hexamers of dNTPs randomly binding to mRNAs) and MgCl2). To each microtube, a volume of water (RNAse free) was added to obtain a final volume of 20 µL, then a reverse transcription cycle was performed in the thermal cycler (MJ Research): 5 min at 25 °C (hybridization), 30 min at 42 °C (reverse transcription) and 5 min at 85 °C (reverse transcription inactivation). The cDNA samples were then stored at −20 °C. For each reverse transcription and for each condition, an internal control was performed by adding iScriptTM No-RT control Supermix 5X (Biorad, Munich, Germany), a solution without the reverse transcriptase enzyme (NRT), instead of iScriptTM reverse Transcription Supermix 5X.
The qPCR was performed on a 96-well plate where each sample was deposited in triplicate. To perform qPCR, human-specific primer pairs were drawn for each gene of interest (Table 2).
An efficiency test and a melting curve were performed for each pair of primers used using the CFX Manager software (Biorad, Munich, Germany) allowing for the specificity and efficiency of the primers to be checked. A qPCR of the cDNAs obtained by RT-PCR was performed using the specific primers and a SsoFast^TM Evagreen SuperMix (Biorad, Munich, Germany) containing DNA polymerase, its cofactors, dNTPs and Evagreen® (a fluorochrome that binds to DNA during elongation). The amplification was carried out for 40 cycles with a hybridization temperature of 60 °C. The reaction was performed in a CFX96 Real-Time System thermal cycler (Biorad, Munich, Germany). Gene expression levels were assessed using the ΔΔCt method and normalized to a reference gene, cyclophilin A. The data were then plotted as a percentage against the control condition. Two controls were performed per primer pair: an NRT and a primer hybridization control (NTC), where the sample containing the cDNAs is replaced with water.

BLECs [2] = experiment: Western immunoblotting of junctional proteins in BLECs; conditions: 10 ng·mL^−1, 24 h
Description: as §1
(§2) After 24 h of treatments with or without proinflammatory cytokines, BLECs were washed twice with cold RH buffer and scraped with 70 μL of RIPA 1X lysis buffer (10 mM Tris-Cl (pH 8.0), 1 mM EDTA, 0.5 mM EGTA, 1% Triton X-100, 0.1% sodium deoxycholate, 0.1% SDS, 140 mM NaCl) (Merck Millipore, Burlington, MA, USA) or UT4 lysis buffer (7M Urea, 2M Thiourea, 4% CHAPS), both supplemented with a cocktail of phosphatase and protease inhibitors (1% protease inhibitors cocktail #P8340; 1% phosphatase inhibitors cocktail 1 P2850; 1% phosphatase inhibitors cocktail 2 #P5726; 1% protease inhibitors cocktail #P8340) purchased from Sigma-Aldrich (Lyon, France). Then, a centrifugation at 10,000 rpm for 10 min at 4 °C was achieved to save the supernatant of the lysate. This was later sonicated two times for 5 s on ice. The concentration of the protein lysate was quantified using the Bradford method (#5000006; rad, Munich, Germany). The protein samples were then stored at −20 °C.
(§3) 20 μg of total protein was mixed with Laemmli 4X (#1610747; Biorad, Munich, Germany) supplemented with β-mercaptoethanol (Sigma-Aldrich, Germany). Depending on the protein target, details of the denaturation and reduction steps of the protein extract are described in Table 3. Then, the protein mixes were electrophoresed using Criterion™ TGX™ (Tris-Glycine eXtended) precast gels (Biorad, Munich, Germany) and subsequently electrotransferred to nitro-cellulose membranes (GE Healthcare, Munich, Germany). Once the previous step was completed, Tris-buffered saline 0.1% Tween 20 (TBST; 20 mM Tris-HCl, pH 8.0, 500 mM NaCl, 0.1% Tween 20) supplemented with 5% skimmed milk was added on membrane to block nonspecific binding sites for 1 h under agitation at RT. Membranes were incubated in the appropriate primary antibodies (as described in Table 3) and incubated at 4 °C overnight, except β-actin (20 min at RT).
(§4) The following morning, the membranes were rinsed with TBST three times for 5 min each under agitation, and then incubated with the horseradish peroxidase-conjugated secondary antibody anti-rabbit (1:8000, Dako/Agilent Technologies, Inc., Santa Clara, CA, USA) or secondary antibody anti-mouse (1:5000, Dako/Agilent Technologies, Inc., Santa Clara, CA, USA) for 1 h at RT. […] Quantification of the relative densities of bands was performed with TotalLab TL 100 1D Gel Analysis software (Nonlinear Dynamics, Newcastle, UK). The protein expression normalization was conducted with anti-β-actin. Studies were performed with at least three independent experiments, with at least two Western immunoblottings per experiment.

BLECs [3] = experiment: Western immunoblotting of proinflammatory markers (ICAM-1, VCAM-1, NLRP3) in BLECs; conditions: for protein levels of ICAM-1, VCAM-1 and NLRP3 versus untreated BLECs: 10 ng·mL^−1, 24 h
Description: Next, as the inflammatory response of endothelial cells is largely dependent on appropriate upregulation of adhesion molecules, such as intercellular adhesion molecule-1 (ICAM-1) and vascular cell adhesion molecule-1 (VCAM-1), and the inflammasome molecule NOD-like receptor family, pyrin domain containing 3 (NLRP3), we evaluated, by Western immunoblotting, the ability of BLECs to respond to these pro-inflammatory stimuli.
as §1, §2, §3, §4

[4] = both cytokines 10 ng·mL^−1, 24 h, normalized to β-actin

Substance	decrease of claudin-3 mRNA level compared to control (BLECs [1]) [%]	decrease of occludin mRNA level compared to control (BLECs [1]) [%]	decrease of tricellulin mRNA level compared to control (BLECs [1]) [%]	increase of claudin-5 mRNA expression compared to control (BLECs [1]) [%]	VE-cadherin mRNA level versus control (BLECs [1])	VE-cadherin protein level versus control (BLECs [2]; normalized to β-actin)	ZO-1 protein level versus control (BLECs [2]; normalized to β-actin)	decrease of claudin-3 protein level compared to control (BLECs [2]; normalized to β-actin) [%]	decrease of occludin protein level compared to control (BLECs [2]; normalized to β-actin) [%]	decrease of tricellulin protein level compared to control (BLECs [2]; normalized to β-actin) [%]	increase of Claudin-5 protein expression compared to control (BLECs [2]; normalized to β-actin) [%]	protein levels of ICAM-1, VCAM-1 and NLRP3 versus untreated BLECs (BLECs [3])	ICAM-1 protein level higher after TNF-α compared to IL-1β (BLECs [3]; [4]) [%]	NLRP3 protein level higher after TNF-α compared to IL-1β (BLECs [3]; [4]) [%]	VCAM-1 protein level higher after TNF-α compared to IL-1β (BLECs [3]; [4]) [%]	decrease of ZO-1 mRNA level compared to control (BLECs [1]) [%]	Claudin-5 protein levels versus control (BLECs [2])	decrease of ZO-1 protein expression compared to control (BLECs [2]; normalized to β-actin) [%]
tumor necrosis factor-α [TNF-α]	61.8	66.3	68.1	139.4	not significantly different	not significantly different	not significantly different	57.3	38.1	50.9	40.2	significantly higher	22.2	478.4	230.6			
interleukin-1β [IL-1β]	81.3	64.0	62.8	48.1	lower			73.1	33.5	51.0		significantly higher				48.1	not reflected by a change in Claudin-5 protein levels	26.4
